# Source: publication PMC10063609, “Discovery of novel cardiac troponin activators using fluorescence polarization-based high throughput screening assays” (Scientific Reports, 2023)
# Read-outs that look alike come from different tables or passages of the source.
# Experiments:
# [1] = test system: bovine cardiac myofibrils; experiment: NADH-coupled ATPase activity of isolated cardiac myofibrils; type: biochemical; settings: sub-maximal activation (~70% of maximal); for Decrease of myofibrilar ATPase activity: pCa 5.8; for Effect on myofibrillar ATPase activity: pCa 5.8, up to 100 μmol/L
# Procedure: Bovine cardiac myofibrils (CMF) were freshly prepared from bovine ventricle as previously described[49]. The NADH-coupled ATPase assay was adapted to test the effects of drugs on bovine cardiac myofibrils[50]. Briefly, buffers with varying free [Ca^2+] were prepared by adding the appropriate concentrations of EGTA and CaCl2 calculated using the MAXCHELATOR software. ATPase assays for hits identified in the cTnI switch peptide and anchoring region screens were performed at pCa 6 and pCa 5.8, respectively. […] 20 μL Enzyme mix was added to individual wells using a 12-well multichannel pipette. Appropriate concentrations of drugs were added to each well and the plate was shaken at 1000 rpm for 5 min on a plate shaker and further incubated at room temperature for 10 min. Substrate mix was dispensed into each well using the Gilson PipetMax. The plate was briefly spun down to ensure removal of air bubbles. The reaction was followed by recording the fluorescence intensity of each well with excitation at 380 nm and emission at 470 nm, for 10 min scanning the plate every 30 s. The temperature was kept constant at 25 °C. ATPase rates were extracted by linear regression to datapoints in GraphPad Prism.
# Ca2+-saturated cTnC = Ca2+-saturated cTnC (Homo sapiens, UniProt P63316); experiment: ITC binding to full length Ca2+-saturated cTnC; settings: for Kd: means ± SEM, n = 3
# [2] = target: interaction between cTnC and the anchoring region of cTnI (cTnIAR) (Homo sapiens, UniProt P63316); experiment: Fluorescence polarization HTS, binding and dose-response, cTnC/FAM-cTnIAR; settings: for FP at higher drug concentrations: > 10 μmol/L, potentially assay interference; for FP (mP): cTnIAR primary screen, single concentration 10 μmol/L; for Total fluorescence intensity of the assay mixture: concentrations of up to 100 μmol/L, 2 nmol/L FAM-cTnIAR, 5 nmol/L cTnC; for Effect on FP from the cTnC FAM-cTnIAR mixture: dose-response, concentration dependent (Fig. 2c)
# Procedure: (§1) Each compound was tested at a concentration of 50 μmol/L and 10 μmol/L for the cTnISP and cTnIAR screen, respectively. Hits were defined as compounds that changed the average FP value more than five-times the standard deviation (SD) (Fig. 1d, red lines). Moreover, compounds that either increased or decreased the total fluorescence intensity (FI) more than five-times the SD were removed from further analysis, indicating either compound aggregation or unspecific interactions with the fluorophore or protein complex.
# (§2) Libraries were reformatted from 96-well plates to Greiner 384-well black plates using a GILSON PipetMax. The plates were sealed with adhesive foil and stored at − 20 °C until further use. […] A total of 40 nL of 10 mmol/L compound stocks were transferred to each well using a Mosquito liquid handler system (final DMSO concentration of 0.1% (v/v)). The plates were incubated in the dark for 30 min at 25 °C, and the fluorescence polarization from each well was measured using a ClarioStar Plate reader with appropriate excitation and emission filter settings. Dose–response curves were constructed by serial dilution of compounds in DMSO and adding a fixed volume to a mixture of peptide and cTnC.
# (§3) Fluorescence polarization dose–response and binding experiments were performed in Greiner 384-well black plates in assay buffer (20 mmol/L Tris–HCl pH 7, 100 mmol/L NaCl, 1 mmol/L CaCl2, 1 mmol/L DTT) at 25 °C.
# [3] = test system: demembranated human donor ventricular tissue; experiment: Force-pCa titrations of demembranated human donor myocardium; type: cell-based; settings: 100 μmol/L, 2 μm sarcomere length
# Procedure: We tested for the functional effects of hit compounds by measuring the calcium sensitivity of force development of chemically demembranated human donor ventricular tissue at 2 μm sarcomere length in the absence and in the presence of 100 μmol/L compounds (Fig. 6). Force-pCa (pCa = −log10[Ca^2+]) relations for each preparation was measured in the absence and in the presence of each compound, so that each muscle preparation served as its own control.
# Briefly, each demembranated cardiac muscle strip underwent a control force-pCa titration in the absence of compounds with the sarcomere length adjusted to about 2 µm by laser diffraction. Drugs were freshly diluted in DMSO and added to physiological buffer solutions. The final DMSO concentration was held constant at 0.2% (v/v). Subsequently, demembranated human heart muscle strips were equilibrated in relaxing solution (pCa 7) containing the appropriate concentrations of drugs for 25 min at 22 °C and the force-pCa titration repeated. Thus, each cardiac muscle strip served as its own negative control and force data were normalized to the maximal force of each preparation in the absence of compounds.
# cTnC-cTnIAR interaction = cTnC-cTnIAR interaction (Homo sapiens, UniProt P63316); experiment: ITC titration of unlabelled cTnIAR peptide into cTnC without or with compound
# [4] = Solubility in aqueous buffer; type: physicochemical
# Procedure: Figure S2. […] D MSO stocks of NS5806 were diluted with assay
# buffer to the indicated concentrations (fixed DMSO concentration of 0.1% (v/v)), potential
# aggregates removed by ultra -centrifugation and the absorbance at 296 nm plotted against the
# in aqueous buffers up to a concentration of at least 500 µmol/L. (B) Total fluorescent intensity
# dose-response curves for Claramine (red) and Furamidine (green) in the presence of 2 nmol/L
# (1 picture or pasted object on this page, not shown here)
# CcTnC = test system: CcTnC; design: method as in PMID 11320096, PMID 10913289; settings: cited from earlier work
# [5] = test system: CcTnC and cTnIAR interaction; design: method as in PMID 11320096, PMID 10913289; settings: NMR spectroscopy; cited from earlier work
# [6] = target: T1, interaction between cTnC and switch peptide of cTnI (cTnISP) (Homo sapiens, UniProt P63316); experiment: Fluorescence polarization HTS and dose-response, cTnC/FAM-cTnISP; type: binding; settings: cTnISP primary screen, single concentration 50 μmol/L
# Procedure: as §1, §2, §3
# Ca2+-saturated cChimera = test system: Ca2+-saturated cChimera; design: method as in PMID 35755445; settings: cited from earlier work
# [7] = target: Ca2+-saturated N-lobe of cTnC; design: method as in PMID 35755445; settings: isolated Ca2+-saturated N-lobe of cTnC; cited from earlier work
# [8] = target: T1, interaction between cTnC and switch peptide of cTnI (cTnISP); design: method as in PMID 33315370; settings: printed in Fig. 1c; assay previously published; cited from earlier work
compound,measurement,setting,value
CC(C)CCCC(C)C1CCC2C3CC(NCCCNCCCCNCCCN)C4CC(O)CCC4(C)C3CCC12C (stereo not shown) [Claramine],Decrease of myofibrilar ATPase activity,[1],40–50%
same,T∆S,Ca2+-saturated cTnC,21.8 ± 1.3 kJ/mol
same,∆H,Ca2+-saturated cTnC,-4.6 ± 1.3 kJ/mol
same,Kd,Ca2+-saturated cTnC,21.6 ± 1.8 µM
same,FP at higher drug concentrations,[2],sudden increase in the FP
same,FP (mP),[2]; LOPAC 1280 library,53.9 mP
same,Total fluorescence intensity of the assay mixture,[2],not affected
same,Effect on FP from the cTnC FAM-cTnIAR mixture,[2],decreased the FP
same,Effect on calcium sensitivity / force-pCa relation,[3],no or little effect
same,Effect on the interaction / binding affinity of cTnC for cTnIAR,cTnC-cTnIAR interaction,no or little effect
same,solubility,"[4]; aqueous solutions, read-out: Solubility in aqueous solutions",> 25 mM
COc1ccc(C(=O)N2CCCc3cc(C4=NNC(=O)SC4C)ccc32)cc1OC (stereo not shown) [EMD 57033],Affinity,CcTnC,micromolar affinity
same,Effect on the CcTnC and cTnIAR interaction in vitro,[5],no significant effect
N=C(N)c1ccc(-c2ccc(-c3ccc(C(=N)N)cc3)o2)cc1 [Furamidine],Decrease of myofibrilar ATPase activity,[1],40–50%
same,T∆S,Ca2+-saturated cTnC,7.7 ± 3 kJ/mol
same,∆H,Ca2+-saturated cTnC,-19.4 ± 3.17 kJ/mol
same,Kd,Ca2+-saturated cTnC,11.9 ± 5.5 µM
same,FP at higher drug concentrations,[2],sudden increase in the FP
same,FP (mP),[2]; TOCRIScreen library,73.2 mP
same,Total fluorescence intensity of the assay mixture,[2],not affected
same,Effect on FP from the cTnC FAM-cTnIAR mixture,[2],decreased the FP
same,Effect on calcium sensitivity / force-pCa relation,[3],slightly increased the calcium sensitivity
same,Effect on maximal isometric force development,[3],no effect
same,Steepness of the force-pCa relation (nH),[3],no effect
same,FP (mP),[6]; LOPAC 1280 library,91.8 mP
same,FP (mP),[6]; TOCRIScreen library,83.1 mP
same,Effect on the interaction / binding affinity of cTnC for cTnIAR,cTnC-cTnIAR interaction,reduced by several orders of magnitude
same,solubility,[4],> 25 mM
COc1ccc(-c2oc3c(CC=C(C)C)c(O)cc(O)c3c(=O)c2O)cc1 [Icaritin],Effect on myofibrillar ATPase activity,[1],no effect
same,FP (mP),[2]; LOPAC 1280 library,64.6 mP
same,Effect on FP from the cTnC FAM-cTnIAR mixture,[2],decreased the FP
O=C(O)c1cccc(-c2ccc(-c3cn(C(=O)N4CCCCC4Cc4ccccc4)nn3)cc2)c1 (stereo not shown) [KT203],Effect on myofibrillar ATPase activity,[1],no effect
same,FP (mP),[2]; LOPAC 1280 library,71.7 mP
same,Effect on FP from the cTnC FAM-cTnIAR mixture,[2],decreased the FP
O=C(O)c1ccc(-c2ccccc2Nc2cccc(Cl)c2)cc1 [RPI-194],Affinity,Ca2+-saturated cChimera,low micromolar affinity
same,Kd,[7],> 300 µM
"FAM-A162H-cTnISP: N-terminally FAM labelled A162H-mutated switch region peptide of human cardiac troponin I, sequence TLRRVRISADAMMQALLGARHKESLDLR",Kd,[8],~10 µM
